In patent US20110212031A1, “NOVEL SUBSTITUTED AZABENZOXAZOLES” (priority 2008, published 2011):
pIC50, pKi: −log10 of the molar value.

Key:
human MAO-B [1] = target: T1, human MAO-B (Homo sapiens, UniProt P27338); test: Monoamine oxidase B functional assay (kynuramine deamination, fluorescence); type: biochemical; details: membrane fractions from insect cells expressing human MAO-B; kynuramine substrate
T1 construct: purchased BD Biosciences Discovery Labware, Woburn Mass; (BD Supersomes Enzymes); host or cells: insect cells
T1 sequence (P27338 1-520): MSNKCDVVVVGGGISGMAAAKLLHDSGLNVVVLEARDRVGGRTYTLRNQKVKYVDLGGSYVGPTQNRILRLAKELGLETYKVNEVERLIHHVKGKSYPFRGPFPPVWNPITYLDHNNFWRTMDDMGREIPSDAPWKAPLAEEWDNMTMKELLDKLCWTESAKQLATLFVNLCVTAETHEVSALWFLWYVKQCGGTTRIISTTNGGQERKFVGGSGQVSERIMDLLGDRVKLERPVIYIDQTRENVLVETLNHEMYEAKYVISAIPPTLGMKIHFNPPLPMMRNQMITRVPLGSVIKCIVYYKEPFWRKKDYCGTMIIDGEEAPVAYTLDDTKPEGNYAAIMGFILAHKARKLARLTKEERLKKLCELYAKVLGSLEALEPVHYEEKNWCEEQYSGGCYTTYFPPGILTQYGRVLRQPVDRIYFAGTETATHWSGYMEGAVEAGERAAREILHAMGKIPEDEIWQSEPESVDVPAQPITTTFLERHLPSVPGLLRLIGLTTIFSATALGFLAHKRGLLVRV
Method: Functional assay: MAO-B containing membrane fractions prepared from insect cells expressing human MAO-B (BD Supersomes Enzymes, BD Biosciences Discovery Labware, Woburn Mass.) were used as a source of MAO-B. Assays were conducted in 96-well plates in a final volume of 200 μL. The assay buffer was 0.1 M potassium phosphate (pH 7.4). The assay system consisted of three mixes: a) inhibitor dilution mix, which was the assay buffer, b) substrate/buffer/control insect cell protein mix: 4× substrate-80 μM kynuramine and 4× control insect cell protein, and c) enzyme/buffer mix: 4× concentrate of MAO-B prepared in assay buffer. The final MAO-B concentration was 0.015 mg/mL. The final total, normalized protein concentration, using control insect protein, was 0.06 mg/mL. Test compounds were serial diluted 3-fold in the inhibitor dilution mix directly in the 96-well plate (total final volume of 100 μL). Fifty μL of the substrate/buffer mix was added to each well. The 96-well plate, containing test compound and MAO substrate (150 μL total volume), was preincubated to 37° C. The reaction was initiated with 50 μL of enzyme/buffer mix. […] Product formation was quantified by comparing the fluorescence emission of the samples to that of known amounts of authentic metabolite standard, 4-hydroxyquinoline, the product formed from kynuramine deamination. […]

human MAO-B [2] = target: T1, human MAO-B; test: MAO-B radioligand binding assay ([3H]-DMAB or [3H] 5-Fluoro-2-(1-methyl-1H-indazol-5-yl)-oxazolo[5,4-b]pyridine); details: membrane fractions from insect cells expressing human MAO-B; radioligand 8-10 nM
Method: Radioligand binding assay: MAO-B containing membrane fractions prepared from insect cells expressing human MAO-B (BD Supersomes Enzymes, BD Biosciences Discovery Labware, Woburn Mass.) were used as a source of MAO-B. [^3H]-DMAB or [^3H] 5-Fluoro-2-(1-methyl-1H-indazol-5-yl)-oxazolo[5,4-b]pyridine were synthesized at a specific activity of ˜80 Ci/mmol. The final concentration of radioligand for tissue homogenate binding assay was 8-10 nM. MAO-B membrane fractions were diluted with phosphate buffered saline (PBS) to 0.25 mg/mL from original 5 mg/mL volume and 200 μl was used in assay for a final mass of 50 μg/assay tube. Unlabeled test compounds were dissolved in dimethylsulfoxide (DMSO) at 1 mM. Dilution of test compound to various concentrations was made with PBS containing 2% DMSO. Total binding was defined in the absence of competing compound, and non-displaceable binding was determined in the presence of 1 μM unlabeled self block. Compound dilutions (10×) were added into the assay tube (25 μL each per tube, separately) containing 200 μL diluted MAO-B membrane fraction, and the tubes were pre-incubated at room temperature for 10 minutes. […] Filters were punched into scintillation vials and counted in 2 mL Ultima Gold on Perkin Elmer Tri-Carb 2900TR for 1 minute. […]

Cn1ccc2cc(-c3nc4ccc(F)nc4o3)cnc21
pKi (human MAO-B [1]): 7.74

CN(C)c1ccc(-c2nc3ccc(F)nc3o2)cc1
pIC50 (human MAO-B [2]): 7.51

Cn1ccc2cc(-c3nc4ccc(F)nc4s3)cnc21
pIC50 (human MAO-B [2]): 8.43
